Laboratory results: publication PMC4033654 (Journal of Medicinal Chemistry, 2014)
Each block holds one compound with its values, some of them ahead of it.

Key:
[1] = system: all human cancer cell lines successfully tested; assay: NCI60 anti-proliferative screen, all cell lines; format: cell-based
MDR-1 = details: cited from earlier work
ABCG2 = details: cited from earlier work
MCF-7 = details: read-out: cytotoxicity GI50, breast MCF-7; cited from earlier work
DU-145 = details: read-out: cytotoxicity GI50, prostate DU-145; cited from earlier work
UACC-62 = details: read-out: cytotoxicity GI50, melanoma UACC-62; cited from earlier work
SN12C = details: read-out: cytotoxicity GI50, renal SN12C; cited from earlier work
HCT-116 = details: read-out: cytotoxicity GI50, colon HCT-116; cited from earlier work
HOP-62 = details: read-out: cytotoxicity GI50, lung HOP-62; cited from earlier work
OVCAR-3 = details: read-out: cytotoxicity GI50, ovarian OVCAR-3; cited from earlier work
recombinant TDP1 = recombinant TDP1 (Homo sapiens, UniProt Q9NUW8); assay: Gel-based assay measuring the inhibition of recombinant TDP1; format: biochemical
TDP1 = details: cited from earlier work

recombinant TDP1, sequence (Q9NUW8 whole entry): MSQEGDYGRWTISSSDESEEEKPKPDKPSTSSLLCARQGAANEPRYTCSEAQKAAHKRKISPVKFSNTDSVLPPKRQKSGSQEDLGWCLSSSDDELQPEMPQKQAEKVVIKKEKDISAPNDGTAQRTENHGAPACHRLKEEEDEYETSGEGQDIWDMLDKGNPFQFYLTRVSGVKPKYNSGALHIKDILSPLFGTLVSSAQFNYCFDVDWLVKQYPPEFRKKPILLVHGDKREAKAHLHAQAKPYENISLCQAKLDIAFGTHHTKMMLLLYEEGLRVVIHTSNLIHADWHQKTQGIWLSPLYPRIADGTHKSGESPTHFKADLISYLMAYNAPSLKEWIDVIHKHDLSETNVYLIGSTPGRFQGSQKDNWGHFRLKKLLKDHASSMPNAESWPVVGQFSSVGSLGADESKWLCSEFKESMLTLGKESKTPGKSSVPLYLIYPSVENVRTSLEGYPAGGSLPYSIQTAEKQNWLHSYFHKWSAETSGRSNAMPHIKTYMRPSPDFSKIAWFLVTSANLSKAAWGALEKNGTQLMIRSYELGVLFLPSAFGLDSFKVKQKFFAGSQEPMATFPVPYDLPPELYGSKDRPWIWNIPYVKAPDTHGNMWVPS

SMILES: COc1cc2c(=O)n(CCCN3CCOCC3)c3c(c2cc1OCCCN1CCCCC1)C(=O)c1cc2c(cc1-3)OCO2 [compound 22, 3-Methoxy-6-(3-morpholinopropyl)-2-(3-(piperidin-1-yl)propoxy)-5H-[1,3]dioxolo[4′,5′:5,6]indeno[1,2-c]isoquinoline-5,12(6H)-dione]
GI50 against various cell lines [1]: low micromolar

SMILES: COc1cc2c3c(n(CCCn4ccnc4)c(=O)c2cc1OC)-c1cc2c(cc1C3=O)OCO2 [indimitecan (7), indimitecan]
substrate for the MDR-1 efflux pump (MDR-1): less affected than the camptothecins
substrate for the ABCG2 efflux pump (ABCG2): less affected than the camptothecins

SMILES: COc1cc2c3c(n(CCCNCCO)c(=O)c2cc1OC)-c1cc2c(cc1C3=O)OCO2 [compound 5]
GI50 (MCF-7): < 10 nM
GI50 (DU-145): < 10 nM
GI50 (UACC-62): 30 nM
GI50 (SN12C): < 10 nM
GI50 (HCT-116): 100 nM
GI50 (HOP-62): 20 nM
GI50 (OVCAR-3): 500 nM

TDP1 inhibitory activity (recombinant TDP1): no TDP1 inhibitory activity
SMILES: COc1cc2c(=O)n(CCCN3CCOCC3)c3c(c2cc1OCCCN1CCOCC1)C(=O)c1cc2c(cc1-3)OCO2 [compound 20, 3-Methoxy-2-(3-morpholinopropoxy)-6-(3-morpholinopropyl)-5H-[1,3]dioxolo[4′,5′:5,6]indeno[1,2-c]isoquinoline-5,12(6H)-dione]
GI50 against various cell lines [1]: submicromolar

TDP1 inhibitory activity (recombinant TDP1): no TDP1 inhibitory activity
SMILES: COc1cc2c(=O)n(CCCN3CCOCC3)c3c(c2cc1OCCCN1CCN(C)CC1)C(=O)c1cc2c(cc1-3)OCO2 [compound 21, 3-Methoxy-2-(3-(4-methylpiperazin-1-yl)propoxy)-6-(3-morpholinopropyl)-5H-[1,3]dioxolo[4′,5′:5,6]indeno[1,2-c]isoquinoline-5,12(6H)-dione]

SMILES: COc1cc2c3c(n(CCCN4CCOCC4)c(=O)c2cc1OC)-c1cc2c(cc1C3=O)OCO2 [Indotecan (6), indotecan]
substrate for the MDR-1 efflux pump (MDR-1): not a substrate
substrate for the ABCG2 efflux pump (ABCG2): not a substrate

SMILES: COc1cc2c(=O)n(CCCN3CCOCC3)c3c(c2cc1O)C(=O)c1cc2c(cc1-3)OCO2 [compound 13]
GI50 (MCF-7): 100 nM

SMILES: N=C(N)c1ccc(-c2ccc(-c3ccc(C(=N)N)cc3)o2)cc1 [Furamidine (8), Furamidine]
TDP1 inhibitor potency (TDP1): micromolar-range

SMILES: COC(=O)COc1cc2c3c(n(CCCN4CCOCC4)c(=O)c2cc1OC)-c1cc2c(cc1C3=O)OCO2 [compound 24, Methyl 2-((3-Methoxy-6-(3-morpholinopropyl)-5,12-dioxo-6,12-dihydro-5H-[1,3]dioxolo[4′,5′:5,6]indeno[1,2-c]isoquinolin-2-yl)oxy)acetate]
GI50 against various cell lines [1]: low micromolar

SMILES: COc1cc2c(=O)n(CCCN3CCOCC3)c3c(c2cc1OCCCN)C(=O)c1cc2c(cc1-3)OCO2.Cl [compound 17, 2-(3-Aminopropoxy)-3-methoxy-6-(3-morpholinopropyl)-5H-[1,3]dioxolo[4′,5′:5,6]indeno[1,2-c]isoquinoline-5,12(6H)-dione]
GI50 against various cell lines [1]: submicromolar

TDP1 inhibitory activity (recombinant TDP1): no detectable TDP1 inhibitory activity
SMILES: C=CCOc1cc2c3c(n(CCCN4CCOCC4)c(=O)c2cc1OC)-c1cc2c(cc1C3=O)OCO2 [compound 15, 2-(Allyloxy)-3-methoxy-6-(3-morpholinopropyl)-5H-[1,3]dioxolo[4′,5′:5,6]indeno [1,2-c]isoquinoline-5,12(6H)-dione]
GI50 against various cell lines [1]: submicromolar
